This note sets out measurements from US8188139B2, “Heterocyclic-substituted phenyl methanones” (Hoffman-La Roche Inc., priority 2005, dated 2012).

The assay has as its target T1, mGlyT-1b (Mus musculus, UniProt P28571).
T1 construct: host or cells: Flp-in-CHO
T1 sequence (P28571 1-651 isoform P28571-2): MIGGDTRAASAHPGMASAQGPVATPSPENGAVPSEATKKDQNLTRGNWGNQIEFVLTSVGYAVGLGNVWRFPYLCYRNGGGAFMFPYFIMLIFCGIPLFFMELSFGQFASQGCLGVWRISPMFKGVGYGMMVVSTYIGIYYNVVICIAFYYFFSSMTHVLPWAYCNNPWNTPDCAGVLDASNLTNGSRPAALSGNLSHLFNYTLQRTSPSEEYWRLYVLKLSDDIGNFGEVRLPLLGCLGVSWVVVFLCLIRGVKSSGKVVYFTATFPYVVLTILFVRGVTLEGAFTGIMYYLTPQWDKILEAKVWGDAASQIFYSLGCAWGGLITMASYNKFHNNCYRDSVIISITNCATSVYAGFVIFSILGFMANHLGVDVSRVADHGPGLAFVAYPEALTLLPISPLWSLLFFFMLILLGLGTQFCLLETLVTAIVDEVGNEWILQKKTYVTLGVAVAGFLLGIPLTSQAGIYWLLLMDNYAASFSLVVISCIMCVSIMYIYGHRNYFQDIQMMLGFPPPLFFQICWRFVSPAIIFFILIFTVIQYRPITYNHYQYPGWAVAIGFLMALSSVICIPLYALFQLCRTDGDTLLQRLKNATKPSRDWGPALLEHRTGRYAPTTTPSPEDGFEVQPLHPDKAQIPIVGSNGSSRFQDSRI
Briefly: Glycine uptake inhibition assay (mGlyT-1b). In kind it is cell-based. The conditions noted are these: inhibition of [3H]-glycine uptake in Flp-in-CHO cells transfected with mGlyT-1b cDNA; 20 min preincubation at 22° C.; read-out: IC50 (μM) at GlyT-1. On the procedure:
DMEM complete medium: Nutrient mixture F-12 (Gibco Life-technologies), fetal bovine serum (FBS) 5%, (Gibco life technologies), Penicillin/Streptomycin1% (Gibco life technologies), Hygromycin 0.6 mg/ml (Gibco life technologies), Glutamine 1 mM Gibco life technologies)
Uptake buffer (UB): 150 mM NaCl, 10 mM Hepes-Tris, pH 7.4, 1 mM CaCl2, 2.5 mM KCl, 2.5 mM MgSO4, 10 mM (+) D-glucose.
Flp-in™-CHO (Invitrogen Cat n^o R758-07) cells stably transfected with mGlyT1b cDNA.
Glycine Uptake Inhibition Assay (mGlyT-1b)
On day 1 mammalian cells, (Flp-in™-CHO), transfected with mGlyT-1b cDNA, were plated at the density of 40,000 cells/well in complete F-12 medium, without hygromycin in 96-well culture plates. On day 2, the medium was aspirated, and the cells were washed twice with uptake buffer (UB). The cells were then incubated for 20 min at 22° C. with either (i) no potential competitor, (ii) 10 mM non-radioactive glycine, (iii) a concentration of a potential inhibitor. A range of concentrations of the potential inhibitor was used to generate data for calculating the concentration of inhibitor resulting in 50% of the effect (e.g. IC50, the concentration of the competitor inhibiting glycine uptake of 50%). A solution was then immediately added containing [^3H]-glycine 60 nM (11-16 Ci/mmol) and 25 μM non-radioactive glycine. The plates were incubated with gentle shaking, and the reaction was stopped by aspiration of the mixture and washing (three times) with ice-cold UB. The cells were lysed with scintillation liquid, shaken 3 hours, and the radioactivity in the cells was counted using a scintillation counter.

Consider `CS(=O)(=O)c1ccc(OCC2CCC2)c(C(=O)N2Cc3cc(C(F)(F)F)cnc3C2)c1` [Example 124, (2-Cyclobutyl-methoxy-5-methane-sulfonyl-phenyl)-(3-trifluoromethyl-5,7-dihydro-pyrrolo[3,4-b]pyridin-6-yl)-methanone], for which the IC50 was 0.03 µM.

Regarding `C[C@H](Oc1ccc(S(C)(=O)=O)cc1C(=O)N1Cc2ccc(-c3ccc(F)cc3)nc2C1)C(F)(F)F` [Example 382, [2-(4-Fluoro-phenyl)-5,7-dihydro-pyrrolo[3,4-b]pyridin-6-yl]-[5-methanesulfonyl-2-((S)-2,2,2-trifluoro-1-methyl-ethoxy)-phenyl]-methanone], the IC50 was found to be 0.024 µM.

Consider `C[C@H](Oc1ccc(S(C)(=O)=O)cc1C(=O)N1Cc2cc(F)c(OC3CCOCC3)cc2C1)C(F)(F)F` [Example 377, [5-Fluoro-6-(tetrahydro-pyran-4-yloxy)-1,3-dihydro-isoindol-2-yl]-[5-methanesulfonyl-2-((S)-2,2,2-trifluoro-1-methyl-ethoxy)-phenyl]-methanone], for which the IC50 was determined as 0.007 µM.

`CS(=O)(=O)c1ccc(OCC(F)(F)C(F)(F)F)c(C(=O)N2Cc3cc(Cl)c(N4C5CCC4COC5)cc3C2)c1` [Example 363, [5-Chloro-6-(3-oxa-8-aza-bicyclo[3.2.1]oct-8-yl)-1,3-dihydro-isoindol-2-yl]-[5-methanesulfonyl-2-(2,2,3,3,3-pentafluoro-propoxy)-phenyl]-methanone]: the half-inhibitory concentration (IC50) worked out at 0.004 µM.

As to `CC(C)COc1ccc(S(C)(=O)=O)cc1C(=O)N1Cc2ccc(C(F)(F)F)cc2C1` [Example 35, (2-Isobutoxy-5-methanesulfonyl-phenyl)-(5-trifluoromethyl-1,3-dihydro-isoindol-2-yl)-methanone], the IC50 came out at 0.028 µM.

For `CC(C)Oc1ccc(S(C)(=O)=O)cc1C(=O)N1Cc2cc(F)c(OC3CCOCC3)cc2C1` [Example 378, [5-Fluoro-6-(tetrahydro-pyran-4-yloxy)-1,3-dihydro-isoindol-2-yl]-(2-isopropoxy-5-methanesulfonyl-phenyl)-methanone], the IC50 was 0.035 µM.

With `C[C@H](Oc1ccc(S(C)(=O)=O)cc1C(=O)N1Cc2ccc(OCCC(F)(F)F)cc2C1)C(F)(F)F` [Example 370, [5-Methanesulfonyl-2-((S)-2,2,2-trifluoro-1-methyl-ethoxy)-phenyl]-[5-(3,3,3-trifluoro-propoxy)-1,3-dihydro-isoindol-2-yl]-methanone], the IC50 was 0.047 µM.

As to `C[C@H](Oc1ccc(S(C)(=O)=O)cc1C(=O)N1Cc2ccc(-c3cc(F)cc(F)c3)cc2C1)C(F)(F)F` [Example 337], the IC50 amounted to 0.022 µM.

With `C[C@H](Oc1ccc(S(C)(=O)=O)cc1C(=O)N1Cc2ccc(-c3ccccc3Cl)cc2C1)C(F)(F)F` [Example 324, [5-(2-Chloro-phenyl)-1,3-dihydro-isoindol-2-yl]-[5-methanesulfonyl-2-(2,2,2-trifluoro-1-methyl-ethoxy)-phenyl]-methanone], the IC50 was determined as 0.045 µM.

In the case of `Cc1csc(-c2ccc3c(c2)CN(C(=O)c2cc(S(C)(=O)=O)ccc2O[C@@H](C)C(F)(F)F)C3)n1` [Example 168, [5-Methanesulfonyl-2-((S)-2,2,2-trifluoro-1-methyl-ethoxy)-phenyl]-[5-(4-methyl-thiazol-2-yl)-1,3-dihydro-isoindol-2-yl]-methanone], the IC50 was determined as 0.033 µM.

As to `CS(=O)(=O)c1ccc(OCC(F)(F)C(F)(F)F)c(C(=O)N2Cc3cc(F)c(N4CCOCC4)cc3C2)c1` [Example 372, (5-Fluoro-6-morpholin-4-yl-1,3-dihydro-isoindol-2-yl)-[5-methanesulfonyl-2-(2,2,2,3,3-pentafluoropropoxy)-phenyl]-methanone], the IC50 was determined as 0.004 µM.

As for `C[C@H](Oc1ccc(S(C)(=O)=O)cc1C(=O)N1Cc2ccc(-c3ccc(F)cc3)cc2C1)C(F)(F)F` [Example 333, [5-(4-Fluoro-phenyl)-1,3-dihydro-isoindol-2-yl]-[5-methanesulfonyl-2-(2,2,2-trifluoro-1-methyl-ethoxy)-phenyl]-methanone], the IC50 was found to be 0.047 µM.

Consider `CS(=O)(=O)c1ccc(-c2ccc(F)cc2)c(C(=O)N2Cc3cnc(C(F)(F)F)cc3C2)c1` [Example 121, (4′-Fluoro-4-methanesulfonyl-biphenyl-2-yl)-(6-trifluoromethyl-1,3-dihydro-pyrrolo[3,4-c]pyridin-2-yl)-methanone], for which the IC50 turned out to be 0.047 µM.

For `CS(=O)(=O)c1ccc(OCC(F)(F)C(F)(F)F)c(C(=O)N2Cc3cc(F)c(OC4CCOCC4)cc3C2)c1` [Example 379, [5-Fluoro-6-(tetrahydro-pyran-4-yloxy)-1,3-dihydro-isoindol-2-yl]-[5-methanesulfonyl-2-(2,2,3,3,3-pentafluoro-propoxy)-phenyl]-methanone], the IC50 worked out at 0.007 µM.

As to `CC(C)Oc1ccc(S(C)(=O)=O)cc1C(=O)N1Cc2ccc(OC3CCOCC3)cc2C1` [Example 373, (2-Isopropoxy-5-methanesulfonyl-phenyl)-[5-(tetrahydro-pyran-4-yloxy)-1,3-dihydro-isoindol-2-yl]-methanone], the IC50 came out at 0.015 µM.

`C[C@H](Oc1ccc(S(C)(=O)=O)cc1C(=O)N1Cc2ccc(-c3ccncc3)cc2C1)C(F)(F)F` [Example 315, [5-Methanesulfonyl-2-((S)-2,2,2-trifluoro-1-methyl-ethoxy)-phenyl]-(5-pyridin-4-yl-1,3-dihydro-isoindol-2-yl)-methanone]: the IC50 amounted to 0.017 µM.

Consider `CC(Oc1ccc(S(C)(=O)=O)cc1C(=O)N1Cc2cc(Cl)c(Cl)cc2C1)C(F)(F)F` (racemic) [Example 9, rac-(5,6-Dichloro-1,3-dihydro-isoindol-2-yl)-[5-methanesulfonyl-2-(2,2,2-trifluoro-1-methyl-ethoxy)-phenyl]-methanone], for which the IC50 is 0.031 µM.

On to `C[C@H](Oc1ccc(S(C)(=O)=O)cc1C(=O)N1Cc2ccc(-c3ccccc3)cc2C1)C(F)(F)F` [Example 323, [5-Methanesulfonyl-2-((S)-2,2,2-trifluoro-1-methyl-ethoxy)-phenyl]-(5-phenyl-1,3-dihydro-isoindol-2-yl)-methanone], for which the IC50 turned out to be 0.013 µM.

On to `CS(=O)(=O)c1ccc(-c2ccc(F)cc2)c(C(=O)N2Cc3cc(C(F)(F)F)cnc3C2)c1` [Example 140, (4′-Fluoro-4-methanesulfonyl-biphenyl-2-yl)-(3-trifluoromethyl-5,7-dihydro-pyrrolo[3,4-b]pyridin-6-yl)-methanone], for which the IC50 is 0.036 µM.

In the case of `C[C@H](Oc1ccc(S(C)(=O)=O)cc1C(=O)N1Cc2ccc(-c3cccs3)cc2C1)C(F)(F)F` [Example 344], the IC50 was 0.02 µM.

In the case of `Cc1ccsc1-c1ccc2c(c1)CN(C(=O)c1cc(S(C)(=O)=O)ccc1O[C@@H](C)C(F)(F)F)C2` [Example 332, [5-Methanesulfonyl-2-(2,2,2-trifluoro-1-methyl-ethoxy)-phenyl]-[5-(3-methyl-thiophen-2-yl)-1,3-dihydro-isoindol-2-yl]-methanone], the IC50 worked out at 0.041 µM.

For the compound `C[C@H](Oc1ccc(S(C)(=O)=O)cc1C(=O)N1Cc2cc(F)c(N3CCOCC3)cc2C1)C(F)(F)F` [Example 371, (5-Fluoro-6-morpholin-4-yl-1,3-dihydro-isoindol-2-yl)-[5-methanesulfonyl-2-((S)-2,2,2-trifluoro-1-methyl-ethoxy)-phenyl]-methanone], the IC50 amounted to 0.006 µM.

Consider `CCOc1cc2c(cc1C(F)(F)F)CN(C(=O)c1cc(S(C)(=O)=O)ccc1OC(C)C)C2` [Example 240], for which the IC50 is 0.0456 µM.

By IC50 is commonly meant the concentration needed to halve the response being measured.
